Measurements published in article PMC6891286, “Towards the Development of an In vivo Chemical Probe for Cyclin G Associated Kinase (GAK)” (Molecules, 2019).

What was measured:
Assay in all cases: KINOMEscan
Type in all cases: binding
[1] = molecular target: T1, MLK2 (Homo sapiens, UniProt Q02779); details: 35 at 1 µM; read-out: % inhibition
T1 construct: purchased Eurofins DiscoverX (KINOMEscan)
Experimental: (§1) KinomeScan Assay on 35 was performed as previously described at EuroFins DiscoverX (Fremont, CA, USA).

[2] = molecular target: T2, PFCDPK1(P.falciparum) (Plasmodium falciparum, UniProt P62344); details: read-out: % inhibition
T2 construct: purchased Eurofins DiscoverX (KINOMEscan)
Experimental: as §1

[3] = molecular target: T3, HUNK (Homo sapiens, UniProt P57058); details: 35 at 1 µM; read-out: % inhibition
T3 construct: purchased Eurofins DiscoverX (KINOMEscan)
Experimental: as §1

[4] = molecular target: T4, CAMK1 (Homo sapiens, UniProt Q14012); details: 35 at 1 µM; read-out: % inhibition
T4 construct: purchased Eurofins DiscoverX (KINOMEscan)
Experimental: as §1

[5] = molecular target: T5, PFPK5(P.falciparum) (Plasmodium falciparum, UniProt P61075); details: 35 at 1 µM; read-out: % inhibition
T5 construct: purchased Eurofins DiscoverX (KINOMEscan)
Experimental: as §1

[6] = molecular target: T6, RIOK3 (Homo sapiens, UniProt O14730); details: 35 at 1 µM; read-out: % inhibition
T6 construct: purchased Eurofins DiscoverX (KINOMEscan)
Experimental: as §1

[7] = molecular target: T7, PIK3CA(C420R) (Homo sapiens, UniProt P42336, C420R); details: 35 at 1 µM; read-out: % inhibition
T7 construct: purchased Eurofins DiscoverX (KINOMEscan)
Experimental: as §1

[8] = molecular target: T8, GRK3 (Homo sapiens, UniProt P35626); details: 35 at 1 µM; read-out: % inhibition
T8 construct: purchased Eurofins DiscoverX (KINOMEscan)
Experimental: as §1

[9] = molecular target: T9, FLT3(D835Y) (Homo sapiens, UniProt P36888, D835Y); details: 35 at 1 µM; read-out: % inhibition
T9 construct: purchased Eurofins DiscoverX (KINOMEscan)
Experimental: as §1

[10] = molecular target: T10, PLK1 (Homo sapiens, UniProt P53350); details: 35 at 1 µM; read-out: % inhibition
T10 construct: purchased Eurofins DiscoverX (KINOMEscan)
Experimental: as §1

[11] = molecular target: T11, DLK (Homo sapiens, UniProt Q12852); details: 35 at 1 µM; read-out: % inhibition
T11 construct: purchased Eurofins DiscoverX (KINOMEscan)
Experimental: as §1

[12] = molecular target: T12, RSK1(Kin.Dom.1-N-terminal) (Homo sapiens, UniProt Q15418); details: 35 at 1 µM; read-out: % inhibition
T12 construct: RSK1(Kin.Dom.1-N-terminal); purchased Eurofins DiscoverX (KINOMEscan)
Experimental: as §1

[13] = molecular target: T13, ADCK3 (Homo sapiens, UniProt Q8NI60); details: 35 at 1 µM; read-out: % inhibition
T13 construct: purchased Eurofins DiscoverX (KINOMEscan)
Experimental: as §1

[14] = molecular target: T14, RSK3(Kin.Dom.2-C-terminal) (Homo sapiens, UniProt Q15349); details: 35 at 1 µM; read-out: % inhibition
T14 construct: RSK3(Kin.Dom.2-C-terminal); purchased Eurofins DiscoverX (KINOMEscan)
Experimental: as §1

[15] = molecular target: T15, PRKD1 (Homo sapiens, UniProt Q15139); details: 35 at 1 µM; read-out: % inhibition
T15 construct: purchased Eurofins DiscoverX (KINOMEscan)
Experimental: as §1

[16] = molecular target: T16, NEK6 (Homo sapiens, UniProt Q9HC98); details: 35 at 1 µM; read-out: % inhibition
T16 construct: purchased Eurofins DiscoverX (KINOMEscan)
Experimental: as §1

[17] = molecular target: T17, GRK4 (Homo sapiens, UniProt P32298); details: 35 at 1 µM; read-out: % inhibition
T17 construct: purchased Eurofins DiscoverX (KINOMEscan)
Experimental: as §1

[18] = molecular target: T18, EGFR(S752-I759del) (Homo sapiens, UniProt P00533, DEL752-759); details: 35 at 1 µM; read-out: % inhibition
T18 construct: purchased Eurofins DiscoverX (KINOMEscan)
Experimental: as §1

[19] = molecular target: T19, MST4 (Homo sapiens, UniProt Q9P289); details: 35 at 1 µM; read-out: % inhibition
T19 construct: purchased Eurofins DiscoverX (KINOMEscan)
Experimental: as §1

[20] = molecular target: T20, RSK3(Kin.Dom.1-N-terminal) (Homo sapiens, UniProt Q15349); details: 35 at 1 µM; read-out: % inhibition
T20 construct: RSK3(Kin.Dom.1-N-terminal); purchased Eurofins DiscoverX (KINOMEscan)
Experimental: as §1

[21] = molecular target: T21, MLK3 (Homo sapiens, UniProt Q16584); details: 35 at 1 µM; read-out: % inhibition
T21 construct: purchased Eurofins DiscoverX (KINOMEscan)
Experimental: as §1

[22] = molecular target: T22, PIM1 (Homo sapiens, UniProt P11309); details: 35 at 1 µM; read-out: % inhibition
T22 construct: purchased Eurofins DiscoverX (KINOMEscan)
Experimental: as §1

[23] = molecular target: T23, CDK5 (Homo sapiens, UniProt Q00535); details: 35 at 1 µM; read-out: % inhibition
T23 construct: purchased Eurofins DiscoverX (KINOMEscan)
Experimental: as §1

[24] = molecular target: T24, CSNK2A2 (Homo sapiens, UniProt P19784); details: 35 at 1 µM; read-out: % inhibition
T24 construct: purchased Eurofins DiscoverX (KINOMEscan)
Experimental: as §1

[25] = molecular target: T25, ADCK4 (Homo sapiens, UniProt Q96D53); details: 35 at 1 µM; read-out: % inhibition
T25 construct: purchased Eurofins DiscoverX (KINOMEscan)
Experimental: as §1

[26] = molecular target: T26, CDC2L1 (Homo sapiens, UniProt P21127); details: 35 at 1 µM; read-out: % inhibition
T26 construct: purchased Eurofins DiscoverX (KINOMEscan)
Experimental: as §1

[27] = molecular target: T27, GSK3A (Homo sapiens, UniProt P49840); details: 35 at 1 µM; read-out: % inhibition
T27 construct: purchased Eurofins DiscoverX (KINOMEscan)
Experimental: as §1

[28] = molecular target: T28, ARK5 (Homo sapiens, UniProt O60285); details: 35 at 1 µM; read-out: % inhibition
T28 construct: purchased Eurofins DiscoverX (KINOMEscan)
Experimental: as §1

[29] = molecular target: T29, CAMKK1 (Homo sapiens, UniProt Q8N5S9); details: 35 at 1 µM; read-out: % inhibition
T29 construct: purchased Eurofins DiscoverX (KINOMEscan)
Experimental: as §1

[30] = molecular target: T30, PRKG2 (Homo sapiens, UniProt Q13237); details: 35 at 1 µM; read-out: % inhibition
T30 construct: purchased Eurofins DiscoverX (KINOMEscan)
Experimental: as §1

[31] = molecular target: T31, ROS1 (Homo sapiens, UniProt P08922); details: 35 at 1 µM; read-out: % inhibition
T31 construct: purchased Eurofins DiscoverX (KINOMEscan)
Experimental: as §1

[32] = molecular target: T32, MYLK (Homo sapiens, UniProt Q15746); details: 35 at 1 µM; read-out: % inhibition
T32 construct: purchased Eurofins DiscoverX (KINOMEscan)
Experimental: as §1

[33] = molecular target: T33, VPS34 (Homo sapiens, UniProt Q8NEB9); details: 35 at 1 µM; read-out: % inhibition
T33 construct: purchased Eurofins DiscoverX (KINOMEscan)
Experimental: as §1

[34] = molecular target: T34, TSSK1B (Homo sapiens, UniProt Q9BXA7); details: 35 at 1 µM; read-out: % inhibition
T34 construct: purchased Eurofins DiscoverX (KINOMEscan)
Experimental: as §1

[35] = molecular target: T35, TIE2 (Homo sapiens, UniProt Q02763); details: 35 at 1 µM; read-out: % inhibition
T35 construct: purchased Eurofins DiscoverX (KINOMEscan)
Experimental: as §1

[36] = molecular target: T36, PKN2 (Homo sapiens, UniProt Q16513); details: 35 at 1 µM; read-out: % inhibition
T36 construct: purchased Eurofins DiscoverX (KINOMEscan)
Experimental: as §1

[37] = molecular target: T37, DDR1 (Homo sapiens, UniProt Q08345); details: 35 at 1 µM; read-out: % inhibition
T37 construct: purchased Eurofins DiscoverX (KINOMEscan)
Experimental: as §1

[38] = molecular target: T38, KIT(D816H) (Homo sapiens, UniProt P10721, D816H); details: 35 at 1 µM; read-out: % inhibition
T38 construct: purchased Eurofins DiscoverX (KINOMEscan)
Experimental: as §1

[39] = molecular target: T39, SLK (Homo sapiens, UniProt Q9H2G2); details: 35 at 1 µM; read-out: % inhibition
T39 construct: purchased Eurofins DiscoverX (KINOMEscan)
Experimental: as §1

[40] = molecular target: T40, BRSK2 (Homo sapiens, UniProt Q8IWQ3); details: 35 at 1 µM; read-out: % inhibition
T40 construct: purchased Eurofins DiscoverX (KINOMEscan)
Experimental: as §1

[41] = molecular target: T41, HIPK2 (Homo sapiens, UniProt Q9H2X6); details: 35 at 1 µM; read-out: % inhibition
T41 construct: purchased Eurofins DiscoverX (KINOMEscan)
Experimental: as §1

T19 sequence (Q9P289 whole entry): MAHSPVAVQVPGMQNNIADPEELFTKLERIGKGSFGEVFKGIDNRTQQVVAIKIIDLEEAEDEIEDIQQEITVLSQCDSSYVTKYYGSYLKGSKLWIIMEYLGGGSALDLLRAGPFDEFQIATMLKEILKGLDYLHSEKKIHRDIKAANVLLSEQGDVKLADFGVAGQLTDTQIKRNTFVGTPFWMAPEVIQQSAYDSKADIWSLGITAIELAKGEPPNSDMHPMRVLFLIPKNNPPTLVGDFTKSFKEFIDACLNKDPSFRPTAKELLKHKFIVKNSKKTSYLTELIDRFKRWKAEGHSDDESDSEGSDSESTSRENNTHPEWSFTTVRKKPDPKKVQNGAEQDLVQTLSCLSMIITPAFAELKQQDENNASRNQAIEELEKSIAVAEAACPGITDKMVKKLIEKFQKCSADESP
T1 sequence (Q02779 whole entry): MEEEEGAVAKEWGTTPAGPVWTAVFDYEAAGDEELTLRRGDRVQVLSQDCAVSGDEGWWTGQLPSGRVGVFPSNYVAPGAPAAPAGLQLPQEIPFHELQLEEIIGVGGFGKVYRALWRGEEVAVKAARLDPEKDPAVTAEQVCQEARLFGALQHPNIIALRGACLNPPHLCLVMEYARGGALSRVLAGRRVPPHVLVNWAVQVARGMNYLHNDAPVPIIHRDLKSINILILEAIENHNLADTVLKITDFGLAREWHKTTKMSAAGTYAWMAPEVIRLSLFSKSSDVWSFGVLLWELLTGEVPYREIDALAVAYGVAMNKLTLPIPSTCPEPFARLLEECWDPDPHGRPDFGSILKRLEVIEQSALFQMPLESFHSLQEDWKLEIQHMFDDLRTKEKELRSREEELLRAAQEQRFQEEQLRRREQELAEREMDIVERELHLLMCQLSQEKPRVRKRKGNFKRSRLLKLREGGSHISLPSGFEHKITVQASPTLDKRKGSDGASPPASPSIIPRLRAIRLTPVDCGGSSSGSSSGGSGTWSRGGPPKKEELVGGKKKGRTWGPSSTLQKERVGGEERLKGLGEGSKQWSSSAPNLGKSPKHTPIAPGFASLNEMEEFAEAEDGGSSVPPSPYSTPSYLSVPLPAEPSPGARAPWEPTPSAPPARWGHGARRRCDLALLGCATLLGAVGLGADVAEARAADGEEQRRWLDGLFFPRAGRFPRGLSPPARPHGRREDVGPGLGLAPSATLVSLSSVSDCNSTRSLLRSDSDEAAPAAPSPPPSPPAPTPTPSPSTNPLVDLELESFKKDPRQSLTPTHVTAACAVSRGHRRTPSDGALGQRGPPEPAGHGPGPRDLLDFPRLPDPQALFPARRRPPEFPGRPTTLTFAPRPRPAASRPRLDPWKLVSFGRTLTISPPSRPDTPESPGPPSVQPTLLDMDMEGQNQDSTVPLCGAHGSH
T41 sequence (Q9H2X6 whole entry): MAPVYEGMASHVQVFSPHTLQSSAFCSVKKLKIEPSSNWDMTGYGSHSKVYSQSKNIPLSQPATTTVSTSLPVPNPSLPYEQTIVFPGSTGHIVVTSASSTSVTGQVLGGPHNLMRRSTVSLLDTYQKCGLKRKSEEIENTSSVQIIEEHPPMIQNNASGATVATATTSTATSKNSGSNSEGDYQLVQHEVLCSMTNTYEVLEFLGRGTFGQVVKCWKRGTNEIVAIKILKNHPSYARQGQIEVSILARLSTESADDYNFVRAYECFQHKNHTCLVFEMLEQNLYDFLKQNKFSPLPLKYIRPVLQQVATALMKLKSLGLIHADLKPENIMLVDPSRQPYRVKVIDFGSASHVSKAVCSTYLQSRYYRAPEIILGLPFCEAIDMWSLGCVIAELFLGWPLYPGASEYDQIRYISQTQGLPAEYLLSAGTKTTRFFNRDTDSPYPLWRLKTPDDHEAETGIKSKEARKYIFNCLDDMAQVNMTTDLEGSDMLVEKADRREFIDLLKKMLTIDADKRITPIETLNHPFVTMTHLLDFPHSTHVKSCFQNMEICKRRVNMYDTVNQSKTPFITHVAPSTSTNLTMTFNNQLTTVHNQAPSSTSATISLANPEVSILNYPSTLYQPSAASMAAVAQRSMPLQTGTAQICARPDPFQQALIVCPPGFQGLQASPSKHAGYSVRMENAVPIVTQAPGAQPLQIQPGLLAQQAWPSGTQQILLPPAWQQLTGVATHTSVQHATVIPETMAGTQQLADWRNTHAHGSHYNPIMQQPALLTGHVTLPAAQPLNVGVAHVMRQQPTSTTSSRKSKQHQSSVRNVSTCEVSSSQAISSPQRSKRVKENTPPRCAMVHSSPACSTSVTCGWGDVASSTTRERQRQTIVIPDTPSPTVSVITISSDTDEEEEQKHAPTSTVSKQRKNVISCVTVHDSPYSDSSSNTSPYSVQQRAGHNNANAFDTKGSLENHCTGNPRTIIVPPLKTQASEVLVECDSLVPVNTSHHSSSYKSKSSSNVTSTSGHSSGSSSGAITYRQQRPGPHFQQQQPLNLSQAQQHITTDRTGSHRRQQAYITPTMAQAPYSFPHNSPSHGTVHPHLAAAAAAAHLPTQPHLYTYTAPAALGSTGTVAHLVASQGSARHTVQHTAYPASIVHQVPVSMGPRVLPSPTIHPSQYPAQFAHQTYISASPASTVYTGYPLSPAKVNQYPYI
T7 sequence (P42336 whole entry C420R): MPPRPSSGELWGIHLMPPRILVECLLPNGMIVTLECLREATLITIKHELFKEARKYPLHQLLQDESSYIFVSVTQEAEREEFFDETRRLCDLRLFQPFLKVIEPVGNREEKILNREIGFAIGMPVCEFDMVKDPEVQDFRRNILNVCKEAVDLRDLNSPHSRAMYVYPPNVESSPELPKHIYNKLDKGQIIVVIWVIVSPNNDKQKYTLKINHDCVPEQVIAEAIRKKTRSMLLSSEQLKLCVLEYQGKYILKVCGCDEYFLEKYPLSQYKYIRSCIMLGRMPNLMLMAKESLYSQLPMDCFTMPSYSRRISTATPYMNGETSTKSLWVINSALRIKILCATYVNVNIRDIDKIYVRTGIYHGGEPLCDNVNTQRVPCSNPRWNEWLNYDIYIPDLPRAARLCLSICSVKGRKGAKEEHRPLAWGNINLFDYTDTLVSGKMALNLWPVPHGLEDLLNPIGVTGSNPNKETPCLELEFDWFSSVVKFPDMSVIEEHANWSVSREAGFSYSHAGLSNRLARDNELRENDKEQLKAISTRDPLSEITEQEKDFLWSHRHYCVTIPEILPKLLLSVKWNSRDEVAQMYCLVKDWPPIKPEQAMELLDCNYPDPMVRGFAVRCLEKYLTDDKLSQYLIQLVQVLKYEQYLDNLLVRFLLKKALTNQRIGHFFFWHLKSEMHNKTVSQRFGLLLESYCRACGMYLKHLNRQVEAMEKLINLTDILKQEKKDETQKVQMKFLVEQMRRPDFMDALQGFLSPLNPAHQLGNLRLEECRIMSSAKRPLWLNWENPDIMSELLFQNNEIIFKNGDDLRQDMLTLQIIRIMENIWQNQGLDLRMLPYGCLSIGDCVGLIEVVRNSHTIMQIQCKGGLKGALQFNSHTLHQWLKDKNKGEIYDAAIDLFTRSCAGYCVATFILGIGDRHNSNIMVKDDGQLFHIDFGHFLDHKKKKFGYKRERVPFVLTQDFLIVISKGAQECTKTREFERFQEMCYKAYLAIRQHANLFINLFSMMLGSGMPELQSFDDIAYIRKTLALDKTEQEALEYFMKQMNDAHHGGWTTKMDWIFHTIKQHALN
T30 sequence (Q13237 whole entry): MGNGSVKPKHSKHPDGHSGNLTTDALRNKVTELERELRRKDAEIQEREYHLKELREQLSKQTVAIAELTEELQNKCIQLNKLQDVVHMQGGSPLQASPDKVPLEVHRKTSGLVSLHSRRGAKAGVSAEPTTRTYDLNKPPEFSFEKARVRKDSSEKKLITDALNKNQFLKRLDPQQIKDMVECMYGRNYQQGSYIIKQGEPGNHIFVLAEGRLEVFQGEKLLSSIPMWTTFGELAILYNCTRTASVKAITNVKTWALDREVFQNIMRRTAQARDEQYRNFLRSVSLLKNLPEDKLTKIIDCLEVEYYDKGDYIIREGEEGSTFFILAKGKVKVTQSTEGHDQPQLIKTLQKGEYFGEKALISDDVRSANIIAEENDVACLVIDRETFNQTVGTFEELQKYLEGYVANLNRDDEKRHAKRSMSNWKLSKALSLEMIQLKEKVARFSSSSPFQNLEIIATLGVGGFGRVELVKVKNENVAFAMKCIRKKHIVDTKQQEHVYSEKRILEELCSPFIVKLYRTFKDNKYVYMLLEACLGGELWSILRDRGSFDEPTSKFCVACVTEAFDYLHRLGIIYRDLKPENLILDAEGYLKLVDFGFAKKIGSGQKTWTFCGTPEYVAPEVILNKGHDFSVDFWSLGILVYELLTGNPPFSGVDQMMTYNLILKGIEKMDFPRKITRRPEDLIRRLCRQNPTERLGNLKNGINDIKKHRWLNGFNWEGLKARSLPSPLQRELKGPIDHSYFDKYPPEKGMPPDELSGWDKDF
T24 sequence (P19784 whole entry): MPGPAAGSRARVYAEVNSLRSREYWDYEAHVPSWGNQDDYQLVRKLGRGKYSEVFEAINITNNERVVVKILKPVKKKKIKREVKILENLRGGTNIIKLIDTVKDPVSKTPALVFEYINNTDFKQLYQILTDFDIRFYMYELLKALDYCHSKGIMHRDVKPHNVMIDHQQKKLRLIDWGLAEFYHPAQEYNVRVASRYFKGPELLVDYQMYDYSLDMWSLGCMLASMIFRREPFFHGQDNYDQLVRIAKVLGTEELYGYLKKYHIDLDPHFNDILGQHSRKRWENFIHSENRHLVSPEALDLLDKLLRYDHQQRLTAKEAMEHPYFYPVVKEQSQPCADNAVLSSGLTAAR
T5 sequence (P61075 whole entry): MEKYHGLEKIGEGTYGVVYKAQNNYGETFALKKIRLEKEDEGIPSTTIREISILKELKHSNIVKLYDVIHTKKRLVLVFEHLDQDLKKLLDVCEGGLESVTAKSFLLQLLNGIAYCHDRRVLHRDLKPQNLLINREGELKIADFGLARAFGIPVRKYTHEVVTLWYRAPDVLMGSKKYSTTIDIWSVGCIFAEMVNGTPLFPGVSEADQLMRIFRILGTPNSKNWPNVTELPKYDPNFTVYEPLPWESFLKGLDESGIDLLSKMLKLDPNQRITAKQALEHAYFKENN

Structure (SMILES): Brc1ccc2nccc(Nc3ccc4cn[nH]c4c3)c2c1 [Compound 35, 6-Bromo-N-(1H-indazol-6-yl)quinolin-4-amine]
- activity at 1 µM [1]: 100%
- activity at 1 µM [2]: 63%
- activity at 1 µM [3]: 100%
- activity at 1 µM [4]: 100%
- activity at 1 µM [5]: 100%
- activity at 1 µM [6]: 100%
- activity at 1 µM [7]: 100%
- activity at 1 µM [8]: 76%
- activity at 1 µM [9]: 100%
- activity at 1 µM [10]: 100%
- activity at 1 µM [11]: 100%
- activity at 1 µM [12]: 100%
- activity at 1 µM [13]: 100%
- activity at 1 µM [14]: 100%
- activity at 1 µM [15]: 100%
- activity at 1 µM [16]: 100%
- activity at 1 µM [17]: 100%
- activity at 1 µM [18]: 89%
- activity at 1 µM [19]: 100%
- activity at 1 µM [20]: 100%
- activity at 1 µM [21]: 100%
- activity at 1 µM [22]: 100%
- activity at 1 µM [23]: 100%
- activity at 1 µM [24]: 100%
- activity at 1 µM [25]: 100%
- activity at 1 µM [26]: 100%
- activity at 1 µM [27]: 100%
- activity at 1 µM [28]: 100%
- activity at 1 µM [29]: 100%
- activity at 1 µM [30]: 100%
- activity at 1 µM [31]: 94%
- activity at 1 µM [32]: 100%
- activity at 1 µM [33]: 100%
- activity at 1 µM [34]: 100%
- activity at 1 µM [35]: 100%
- activity at 1 µM [36]: 99%
- activity at 1 µM [37]: 79%
- activity at 1 µM [38]: 100%
- activity at 1 µM [39]: 100%
- activity at 1 µM [40]: 100%
- activity at 1 µM [41]: 88%
